Measured values reported in US20260209692A1, “BASAL MEDIUM COMPOSITION FOR ANIMAL CELL CULTURE” (TableMark Co., Ltd., priority 2023, published 2026).

Tests used:
[1] = system: duck liver-derived cells (primary cultured cells); experiment: Culturability when L-cystine was replaced with L-cysteine, duck liver-derived cells (Example 9); format: cell-based; settings: end of third subculture, 0.072 g/L
Protocol: (§1) Cells used: MDBK cells (established cell line), RL34 cells (established cell line), duck liver-derived cells (primary cultured cells)
(§2) Amount of L-cysteine hydrochloride monohydrate added: Since L-cystine is a dimer of L-cysteine, L-cysteine hydrochloride monohydrate was added in an amount twice the number of moles of L-cystine.
(§3) MDBK cells and RL34 cells were each subcultured in a complete medium prepared by adding 1% PSA and 10% FBS to the above basal medium. Duck liver-derived cells were also subcultured in a complete medium prepared by adding 1% PSA and 10% serum to the above basal medium. In both cases, subculture was performed every 3 to 4 days, and subculture was performed up to the third time.

[2] = system: RL34 cells (established cell line); experiment: Culturability when L-cystine was replaced with L-cysteine, RL34 (Example 9); format: cell-based, rat; settings: RL34, end of third subculture, 0.072 g/L
Protocol: as §1, §2, §3

[3] = system: MDBK cells (established cell line); experiment: Culturability when L-cystine was replaced with L-cysteine, MDBK (Example 9); format: cell-based, bovine; settings: end of third subculture, 0.072 g/L
Protocol: as §1, §2, §3

[4] = system: mouse-derived myoblast cell line C2C12; experiment: Cell culture test of amino acid conditions, C2C12 (Example 1); format: cell-based; settings: C2C12, from condition 19 (1/8 amount) vs condition 20
Protocol: Of the constituents to be contained in Dulbecco's Modified Eagle Medium (DMEM), those excluding amino acids was dissolved in ion-exchanged water to prepare A.A.-IMEM Seven types of yeast extract ([…], and J) shown below were each further added to the A.A.-IMEM Buffer, so that the final concentration in the medium was 1 g/L. Various amino acids required for the proliferation of cultured cells in DMEM were added to “A.A.-IMEM Buffer+yeast extract” according to conditions 1 to 16 in Table 3, and a cell culture test was conducted. […] The amount of each amino acid added was the same as that contained in the formulation of DMEM. In addition, the same amino acid composition as that of DMEM was used as P.C. (positive control), while the same amino acid composition as that of DMEM but with 1⁄8th the amount added was used as condition 19, and that with 1/32nd the amount added was used as condition 20. All reagents used in the experiment were of food additive grade. 10% heat-inactivated fetal bovine serum (FBS) and 1% penicillin-streptomycin-amphotericin (PSA) were further added to A.A.-IMEM Buffer+yeast extract and the amino acids of each condition listed in Table 3, so as to conduct a cell culture test. For the cell culture test, mouse-derived myoblast cell line C2C12 was used. […]

SMILES	difference in culturability due to replacement of L-cystine [1]	difference in culturability due to replacement of L-cystine [2]	difference in culturability due to replacement of L-cystine [3]	amount of amino acid required in the medium [4]
Cl.N[C@@H](CS)C(=O)O.O [L-cysteine hydrochloride monohydrate]	almost no difference in culturability	almost no difference in culturability	almost no difference in culturability	
N[C@@H](CSSC[C@H](N)C(=O)O)C(=O)O [L-cystine]				at least 6.13 mg/L
NC(=O)CC[C@H](N)C(=O)O [L-glutamine]				≥ 74.5 mg/L
